Test results: publication PMC4580987, “Catalytic site inhibition of insulin-degrading enzyme by a small molecule induces glucose intolerance in mice” (Nature Communications, 2015)
pIC50: −log10 of the molar value.

Assays:
[1] = molecular target: T1, human ACE (Homo sapiens, UniProt P12821); assay: ACE selectivity assay; assay type: biochemical; settings: >10 μM stands for <10% at 10 μM; read-out: Selectivity IC50 hACE
T1 construct: purchased R&D Systems
Description: (§1) Briefly, human NEP (R&D Systems; 200 ng ml^−1) was incubated 10 min at room temperature with compound in Hepes 50 mM, NaCl 100 mM, pH 7.4 and the enzymatic reaction started by adding the substrate (final concentration 200 μM). […] Briefly, human ACE (R&D Systems) was incubated 10 min at room temperature with compound in Tris 50 mM 1% NaCl pH 7.4 and the enzymatic reaction is started by adding the substrate (final concentration 300 μM). […] In vitro activity was assayed at CEREP.SA as follows.

[2] = molecular target: T2, human NEP (Homo sapiens, UniProt P08473); assay: Neutral endopeptidase (NEP) selectivity assay; assay type: biochemical; settings: means of two experiments minimum, s.d.±10%; read-out: Selectivity IC50 hNEP
T2 construct: purchased R&D Systems
T2 sequence (P08473 whole entry): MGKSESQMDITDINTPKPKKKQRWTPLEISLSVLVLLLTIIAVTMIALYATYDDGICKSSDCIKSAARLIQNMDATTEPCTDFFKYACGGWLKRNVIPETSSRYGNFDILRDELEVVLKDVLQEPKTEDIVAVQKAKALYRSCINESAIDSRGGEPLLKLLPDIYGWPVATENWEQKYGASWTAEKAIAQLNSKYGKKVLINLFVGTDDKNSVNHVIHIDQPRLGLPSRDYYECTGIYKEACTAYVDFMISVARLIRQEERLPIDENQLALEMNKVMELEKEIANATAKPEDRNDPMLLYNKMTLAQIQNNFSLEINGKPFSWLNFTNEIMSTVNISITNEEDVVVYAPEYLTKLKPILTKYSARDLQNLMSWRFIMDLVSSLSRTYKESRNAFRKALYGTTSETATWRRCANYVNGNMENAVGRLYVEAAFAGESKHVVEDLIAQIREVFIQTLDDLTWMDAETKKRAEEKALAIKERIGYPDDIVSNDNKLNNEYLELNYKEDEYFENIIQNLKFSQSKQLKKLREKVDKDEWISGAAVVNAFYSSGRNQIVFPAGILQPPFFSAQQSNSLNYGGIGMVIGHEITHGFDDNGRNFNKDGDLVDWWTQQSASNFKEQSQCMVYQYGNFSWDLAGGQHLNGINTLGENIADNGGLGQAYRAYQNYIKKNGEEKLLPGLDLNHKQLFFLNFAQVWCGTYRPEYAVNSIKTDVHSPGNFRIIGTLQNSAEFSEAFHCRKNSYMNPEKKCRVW
Description: as §1

[3] = LogD measurement octanol/PBS pH 7.4; assay type: physicochemical; settings: read-out: Logd7.4
Description: Ten microlitre of a 10 mM solution in DMSO of the compound are diluted either in 490 μl of PBS pH 7.4 or in organic solvent MeOH in a 700 μl-microtube (in triplicate). The tubes are gently shaken 24 h at room temperature, then centrifuged for 5 min at 4,000 r.p.m. The mixtures are filtered over 0.45 μm filters (Millex-LH Millipore). Twenty microlitre of sample are diluted in 180 μl of MeOH. The solubility is determined by the ratio of mass signal area PBS/ organic solvent. Forty microlitre of a 10 mM solution in DMSO of the compound were diluted in 1.960 ml of a 1/1 octanol /PBS at pH 7.4 mixture. The mixture was gently shaken 2 h at room temperature. Twenty microlitre of each phase was diluted in 480 μl of MeOH and analysed by LC–MS. Each compound is tested in triplicate. Log D was determined as the logarithm of the ratio of concentration of product in octanol and PBS respectively, determined by mass signals.

[4] = system: isolated mouse islets; settings: 3 or 10 µM
Description: Digestion was stopped by addition of cold HBSS with 10% FCS. The islets were washed twice in HBSS with FCS and once in RPMI with FCS. […] The next day, the islets were incubated in fresh DMEM with 10% FCS without glucose for 90 min. Then glucose at 2.8 mM together with BDM44378 was added; after 1 h, the supernatant was removed and replaced by fresh medium with 28 mM glucose, followed by another 1-h incubation in the presence or absence of inhibitor.

[5] = molecular target: T3, hIDE (Homo sapiens, UniProt P14735); assay: Small-angle X-ray scattering (SAXS) of hIDE conformation
T3 construct: made in house
T3 sequence (P14735 1-1019): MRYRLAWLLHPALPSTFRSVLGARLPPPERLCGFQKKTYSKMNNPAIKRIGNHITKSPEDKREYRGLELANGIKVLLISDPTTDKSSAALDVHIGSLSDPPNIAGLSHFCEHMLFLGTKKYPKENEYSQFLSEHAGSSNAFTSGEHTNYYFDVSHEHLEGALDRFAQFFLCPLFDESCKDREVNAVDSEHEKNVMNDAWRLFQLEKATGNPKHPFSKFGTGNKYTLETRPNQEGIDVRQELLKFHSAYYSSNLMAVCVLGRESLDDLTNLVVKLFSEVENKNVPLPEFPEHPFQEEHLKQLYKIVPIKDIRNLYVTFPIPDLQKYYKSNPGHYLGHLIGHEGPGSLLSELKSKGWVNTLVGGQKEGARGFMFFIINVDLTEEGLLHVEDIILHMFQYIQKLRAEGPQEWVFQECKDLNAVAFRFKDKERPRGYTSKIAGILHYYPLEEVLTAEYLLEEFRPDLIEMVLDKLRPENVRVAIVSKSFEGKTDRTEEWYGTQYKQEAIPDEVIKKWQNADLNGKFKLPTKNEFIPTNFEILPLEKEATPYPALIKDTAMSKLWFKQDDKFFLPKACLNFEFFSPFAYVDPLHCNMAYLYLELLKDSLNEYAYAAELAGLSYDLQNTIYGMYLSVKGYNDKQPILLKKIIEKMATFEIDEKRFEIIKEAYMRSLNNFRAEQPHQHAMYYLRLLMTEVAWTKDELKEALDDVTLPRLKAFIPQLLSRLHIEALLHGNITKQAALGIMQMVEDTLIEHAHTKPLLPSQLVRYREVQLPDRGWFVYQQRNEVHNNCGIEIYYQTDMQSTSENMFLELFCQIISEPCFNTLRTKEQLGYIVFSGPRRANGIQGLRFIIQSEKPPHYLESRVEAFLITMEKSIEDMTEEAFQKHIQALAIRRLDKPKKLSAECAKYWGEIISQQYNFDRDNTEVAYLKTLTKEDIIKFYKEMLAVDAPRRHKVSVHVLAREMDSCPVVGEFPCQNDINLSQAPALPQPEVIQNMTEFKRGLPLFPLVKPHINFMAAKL
Description: SAXS data were collected at the APS 18-ID (BioCAT) with the Mar 165 CCD detector at room temperature (24 °C). The incident X-ray wavelength is 1.033 Å. hIDE was purified as described before. After 2 gel-filtration, hIDE was concentrated and dialysis against 20 mM Hepes, pH 7.2, 100 mM NaCl. […] The data reducing and all data processing were carried out using ATSAS. P(r) function was calculated with GNOM[44], and SAXS data fitting was performed with CRYSOL[45].

T1 sequence (P12821 30-1306): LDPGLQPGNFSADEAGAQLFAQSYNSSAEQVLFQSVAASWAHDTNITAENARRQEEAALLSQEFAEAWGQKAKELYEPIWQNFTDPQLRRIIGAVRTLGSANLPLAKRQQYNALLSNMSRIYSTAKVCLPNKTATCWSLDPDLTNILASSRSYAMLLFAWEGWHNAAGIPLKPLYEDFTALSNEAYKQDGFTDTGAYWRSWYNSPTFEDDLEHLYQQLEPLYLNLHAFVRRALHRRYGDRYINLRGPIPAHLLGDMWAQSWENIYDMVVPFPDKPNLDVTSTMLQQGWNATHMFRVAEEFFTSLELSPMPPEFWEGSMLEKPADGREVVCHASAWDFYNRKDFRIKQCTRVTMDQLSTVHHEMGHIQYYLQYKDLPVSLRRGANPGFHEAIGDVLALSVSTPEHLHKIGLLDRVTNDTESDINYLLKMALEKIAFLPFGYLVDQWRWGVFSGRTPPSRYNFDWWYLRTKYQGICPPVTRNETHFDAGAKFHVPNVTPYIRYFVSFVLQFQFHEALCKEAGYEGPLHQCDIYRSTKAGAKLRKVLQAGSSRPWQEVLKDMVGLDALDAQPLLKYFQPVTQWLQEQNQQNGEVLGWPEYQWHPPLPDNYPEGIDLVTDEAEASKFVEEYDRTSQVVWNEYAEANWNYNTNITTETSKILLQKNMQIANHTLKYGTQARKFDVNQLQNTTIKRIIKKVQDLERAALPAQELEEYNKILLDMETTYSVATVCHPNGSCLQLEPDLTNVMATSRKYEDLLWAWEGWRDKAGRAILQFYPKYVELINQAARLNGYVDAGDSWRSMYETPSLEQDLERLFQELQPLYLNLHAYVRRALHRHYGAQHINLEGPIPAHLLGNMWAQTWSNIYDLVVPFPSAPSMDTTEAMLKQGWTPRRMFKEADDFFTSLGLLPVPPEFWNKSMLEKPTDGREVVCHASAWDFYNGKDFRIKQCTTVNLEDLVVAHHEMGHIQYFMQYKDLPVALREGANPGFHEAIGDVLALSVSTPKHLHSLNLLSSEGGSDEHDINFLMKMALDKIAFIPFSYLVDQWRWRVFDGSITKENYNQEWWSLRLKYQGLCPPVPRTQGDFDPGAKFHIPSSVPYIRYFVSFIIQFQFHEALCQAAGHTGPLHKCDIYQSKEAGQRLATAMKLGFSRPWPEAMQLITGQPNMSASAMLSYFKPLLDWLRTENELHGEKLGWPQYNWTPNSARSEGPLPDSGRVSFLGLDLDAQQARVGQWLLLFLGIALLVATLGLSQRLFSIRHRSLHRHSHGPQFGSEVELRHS

Structure (SMILES): O=C(C[C@@H](Cc1ccc2ccccc2c1)n1cc(CNC(=O)c2ccc(F)cc2)nn1)NO [Compound 1]
- pIC50 [1]: < 5.00
- pIC50 [2]: 5.59
- logD [3]: 2.2
- insulin in the supernatant of islets, Ide−/− ([4]; islets from Ide−/− mice): did not respond
- insulin detectable in the supernatant of islets, wild-type ([4]; islets from wild-type C57BL/6J mice, 2.8 and 28 mM glucose): increased, in a dose-dependent manner
- radius of gyration (Rg) of IDE with compound ([5]; 53.1 Å without compound): 47.6 Å
- Dmax of IDE with compound ([5]; 180 Å without compound): 160 Å
- fraction of IDE in the open conformation with compound ([5]; ∼63% open in the absence of compound, fit of SAXS profile): ~16%
